{"source": "patent US4831053A", "about": "“Composition for prophylaxis and therapy of hepatitis” (Otsuka Pharmaceutical Co., Ltd., priority 1979, dated 1989)", "key": {"[1]": {"test_system": "complement", "assay": "Anti-complement activity", "method": "A 30-liter jar fermentor was charged with 20 liters of a culture medium of the above formulation, and one flask of the resulting seed culture was cultivated in the culture medium at 28° C. for 5 days with stirring at 300 rpm at an aeration rate of 1 liter per liter of the culture medium per minute. The resulting culture broth was centrifuged at a speed of 8,000 rpm to remove the microbial cells. To the supernatant liquid was added 5 liters of methanol, and the mixture was stirred and then allowed to stand for 3 hours. The mixture was centrifuged and the solid material was removed. The supernatant was extracted with an equal quantity, by volume, of ethyl acetate. The solvent of the ethyl acetate layer was distilled off under reduced pressure. The residue was dissolved in methanol, and passed through a column of activated carbon. The eluate was concentrated to dryness under reduced pressure. The dried mass was dissolved in a mixture of chloroform and ethyl acetate (1:1, v/v) and gel-filtered through a column of Sephadex LH-20. […] The compound had the following physicochemical characteristics."}, "[2]": {"assay": "Tautomer equilibrium in solution (NMR)", "assay_type": "physicochemical", "settings": "methanol or pyridine as solvent", "method": "Integration of the areas under the peak signals indicates a proportion of the former to the latter of about 73:27. After 2 hours the peak at 9.89 ppm increase further to an extent that the integrated proportions become about 70:30, and this proportion remains unchanged according to NMR analysis even after 63 hours. From this it follows that the compound represented by formula (I) and that represented by formula (II) are present in a molar proportion of about 7:3 in the solution. However, when methanol or pyridine is used as a solvent, the compound of formula (II) is not formed."}, "[3]": {"assay": "Acute toxicity (intravenous)", "settings": "in vivo, rat", "method": "The acute toxicity of the compound obtained in Synthesis Example 2 was determined by administering it intravenously to rat. The LD50 value obtained was 500 mg/kg."}, "[4]": {"test_system": "fulminant hepatitis (Schwarzman hepatitis)", "assay": "Schwarzman hepatitis (endotoxin-induced fulminant hepatitis): serum GOT and LDH levels, liver sections", "assay_type": "in vivo, S.D. strain rats", "method": "The test for evaluating the prophylactic and therapeutic effect of the compound represented by the formula (I) or (II) was conducted in accordance with the method of Mori et al., Kanzo, Vol. 17, pp. 580-589 (1976), using S.D. strain rats having a body weight of about 300 g as test animals, and causing fulminant hepatitis (Schwarzman hepatitis) to occur. More particularly, 4 test groups, each consisting of 5 S.D. strain rats, were administered 0.1 mg/body of endotoxin (LPS: E. coli 0.26: B6, a product of Difco Co.) peritoneally (by injection), and after 48 hours the same endotoxin preparation was administered by injection to each group at a dosage of 0.05, 0.2, 0.5 or 1.2 mg/body for boostering. On the other hand, 5 mg/body of the active ingredient of the agent of this invention was administered peritoneally by injection once a day for 6 days. This treatment was initiated 2 days before the first administration of endotoxin took place and ended on the day after the second administration of endotoxin for boostering. The test animals were victimized (i.e., destroyed and analyzed) 48 hours after the second administration of endotoxin, and the levels of GOT and LDH in the serum of the victimized rats were determined using a UV method described in American Journal of Clinical Pathology, Vol. 47, pp. 419-428 (1967) and Cancer Research, Vol. 14, pp. 513-515 (1954). In addition, degree of occurrence of hepatic necrosis and distribution of endotoxin in the liver were obseved microscopically using sections of liver of the victimized animals. The compound obtained in Synthesis Example 2 was used as the active ingredient. The same procedure was repeated on animals of 4 control groups which were not administered the active ingredient. The levels of GOT and of LDH in the serum determined for the group which received endotoxin boostering amount of 0.5 mg/body at the second administration and for the control group are shown in FIGS. 1 and 2, respectively. In FIGS. 1 and 2, the symbol o indicates the values obtained for each test animal in the group. Evaluation of the results was made based on the average value ± an error obtained by statistical treatment thereof. […] The sections of livers of the test animals of the same groups as above were observed using the fluorescence antibody method described in Journal of Experimental Medicine, Vol. 91, pp. 1-13 (1950)."}, "[5]": {"test_system": "chronic hepatitis", "assay": "Clinical data: patient with chronic hepatitis, GOT, GPT and serum bilirubin before and after administration", "assay_type": "in vivo", "settings": "human, oral, about 500 mg twice a day", "method": "This treatment was continued for 2 months.\nThe levels of glutamic oxalacetic transaminase (GOT), glutamic pyruvic transaminase (GPT) and serum bilirubin (SB) were determined according to the conventional methods described in Am. J. Clin. Path., 28, 56-63 (1957) (for GOT and GPT) and in J. Biol. Chem., 119, 481-490 (1937) (for SB), and compared with the data obtained before the administration, as shown in Table below."}, "[6]": {"settings": "microscopic observation of liver sections (×100), FIG. 3b"}, "[7]": {"settings": "rat, 5 mg/body i.p. once a day for 6 days, endotoxin booster 0.5 mg/body, vs control group"}}, "data": [{"smiles": "CC1CCC2C(C)(C)C(O)C(O)CC2(C)C12Cc1c(O)cc(C=O)c(C=O)c1O2", "note": "(stereo not shown) [Synthesis Example 1, 6,7-dihydroxy-2,5,5,8a-tetramethyl-1,2,3,4,4a,5,6,7,8,8a-decahydronaphthalene-1-spiro-2'-(6',7'-diformyl-4'-hydroxy-2',3'-dihydrobenzofuran)]", "values": [{"measurement": "anti-complement activity", "setting": "[1]", "value": "having an anti-complement activity"}]}, {"smiles": "CC1CCC2C(C)(C)C(O)C(O)CC2(C)C12Cc1c(O)cc3c(c1O2)C(O)OC3=O", "note": "(stereo not shown) [Synthesis Example 2, 4,8-dihydroxy-6-oxo-2,3,6,8-tetrahydro-furo[3,4-g]benzofuran-2-spiro-1'-(6',7'-dihydroxy-2',5',5',8'a-tetramethyl-1',2',3',4',4'a,5',6',7',8',8'a-decahydronaphthalene)]", "values": [{"measurement": "formation of compound of formula (II) in solution", "setting": "[2]", "value": "not formed"}, {"measurement": "LD50", "setting": "[3]", "value": 500, "unit": "mg/kg"}, {"measurement": "distribution of endotoxin in the liver", "setting": "[4]; fluorescence antibody method, liver sections, FIG. 4b", "value": "strongly localized in Kupffer cells but scarcely outside the cells"}, {"measurement": "degree of cell degeneration of liver cells", "setting": "[4]; [6]", "value": "very slight"}, {"measurement": "occurrence of damage of cells of liver", "setting": "[4]; [6]", "value": "significantly inhibited or such damage was substantially cured"}, {"measurement": "level of GOT in the serum", "setting": "[4]; [7]", "value": "significantly lower than those of the control group"}, {"measurement": "level of LDH in the serum", "setting": "[4]; [7]", "value": "significantly lower than those of the control group"}, {"measurement": "occurrence of fulminant hepatitis (Schwarzman hepatitis)", "setting": "[4]; rat, 5 mg/body i.p. once a day for 6 days, from GOT and LDH levels", "value": "significantly inhibits the occurrence of fulminant hepatitis"}]}, {"smiles": "CC1CCC2C(C)(C)C(O)C(O)CC2(C)C12Cc1c(O)cc(C(=O)O)c(C=O)c1O2", "note": "(stereo not shown) [Synthesis Example 3, disodium 6,7-dihydroxy-2,5,5,8a-tetramethyl-1,2,3,4,4a,5,6,7,8,8a-decahydronaphthalene-1-spiro-2'-(6'-carboxylate-7'-formyl-4'-oxide-2',3'-dihydrobenzofuran)]", "values": [{"measurement": "feeling with respect to fatigue and loss of strength", "setting": "[5]; 2 months, described by patient", "value": "considerably improved feeling"}, {"measurement": "SB (serum bilirubin)", "setting": "[5]; after administration (2 months), before: 2.6", "value": 1.5, "unit": "mg/dL"}, {"measurement": "GPT", "setting": "[5]; after administration (2 months), before: 143", "value": 67, "unit": "unit"}, {"measurement": "GOT", "setting": "[5]; after administration (2 months), before: 180", "value": 45, "unit": "unit"}]}]}
